Results reported in patent US11078222B2, “Hydroxybenzoic acid derivatives, methods and uses thereof” (UNiVERSIDADE DO PORTO, priority 2016, dated 2021).
Each block holds one compound with its values, some of them ahead of it.

Tests used:
[1] = Iron (II) chelation, ferrozine assay; type: biochemical; conditions: compound 100 μM
Method: In an embodiment, the iron (II) chelation capacity of the novel AntiOxBENs was evaluated by the ferrozine assay using EDTA (ethylenediaminetetracetic acid) as reference. The iron chelating properties of protocatechuic and gallic acids, and MitoQ, a mitochondriotropic antioxidant, were also evaluated (FIG. 2).
In an embodiment, AntiOxBENs iron chelating properties were evaluated by the spectrophotometric ferrozine method performed in a multiplate reader (Powerwave XS Microplate Reader) of Bio-Tech instruments.
In an embodiment, the AntiOxBENs iron chelating properties were evaluated as follows: in each well, a solution of the test compound (100 μM) and ammonium iron (II) sulphate in ammonium acetate (20 μM) were added, incubated for 10 min and the absorbance was read at 562 nm. Then, a freshly prepared solution of ferrozine (5 mM) was added to each well (96 μM final concentration). After a new incubation at 37° C. for 10 min period, the absorbance of [Fe(ferrozine)3]^2+ complex was measured at 562 nm. Blank wells were run using DMSO instead of the test compounds. EDTA was used as a reference. All compounds were tested at a final concentration of 100 μM. The absorbance of the first reading was subtracted to the final values to abolish any absorbance due to the test compounds.

[2] = DPPH radical scavenging activity (total antioxidant capacity); type: biochemical; conditions: ethanol, 515 nm, 45 min
[3] = ABTS radical cation scavenging activity; type: biochemical; conditions: ethanol, 15 min
[4] = GO radical scavenging activity; type: biochemical; conditions: ethanol, 428 nm, 30 min
[5] = Redox potential by differential pulse and cyclic voltammetry, glassy carbon electrode; type: physicochemical; conditions: physiological pH 7.4
Method: In an embodiment, the oxidative behaviour of the parent antioxidants (protocatechuic and gallic acids) and AntiOxBENs was evaluated at physiological pH 7.4, by differential pulse and cyclic voltammetry, using a glassy carbon working electrode. […] For pyrogallol derivatives (gallic acid, AntiOxBEN2, AntiOxBEN3), a significant decrease in redox potentials was observed (Ep=0.163-0.168 V) (Table 1).
In an embodiment, the electrochemical analytical data was obtained using a computer controlled potentiostat Autolab PGSTAT302N (Metrohm Autolab, Utrecht, Netherlands). Generally, cyclic voltammetry (CV) data was acquired at a scan rate of 50 mVs^−1. Differential pulse voltammetry (DPV) results were acquired at a step potential of 4 mV, pulse amplitude of 50 mV and scan rate of 8 mVs^−1. The electrochemical signals were monitored by the General Purpose Electrochemical System (GPES) version 4.9, software package. All electrochemical experiments were performed at room temperature in an electrochemical cell that was placed in a Faraday cage in order to minimize the contribution of background noise to the analytical signal.
In an embodiment, the process of evaluation of AntiOxBENs redox properties was conducted as follows: stock solutions of each compound (10 mM) were prepared by dissolving the appropriate amount in ethanol. The voltammetric working solutions were prepared in the electrochemical cell, at a final concentration of 0.1 mM. The […] supporting electrolyte was prepared by diluting 6.2 mL of 0.2 M dipotassium hydrogen phosphate and 43.8 mL of 0.2 M potassium dihydrogen phosphate to 100 mL. Voltammetric data was acquired in a three-electrode system consisting of a glassy carbon electrode (GCE, d=2 mm) as working electrode, a counter electrode of platinum wire and a saturated Ag/AgCl reference electrode. In an embodiment, the evaluation of AntiOxBENs lipophilic properties was performed as follows: the electrochemical cell was a four-electrode system with arrays of micro liquid-liquid interfaces (μITIES) containing two Ag/AgCl reference electrodes and two counter electrodes of Pt, one in each phase. The microporous membrane was sealed with a fluorosilicone sealant (Dow Corning 730) onto a glass cylinder which was filled with 4.0 mL of the aqueous phase, where the aliquots of AntiOxBENs solutions were added. The membrane was then immersed into the organic phase contained in the cell. The organic phase reference solution (a 2 mM BTPPACI+2 mM NaCl aqueous solution) was mechanically stabilized The aqueous supporting electrolyte solution was a Tris-HCl buffer 10 mM pH 7.0.

[6] = system: rat liver mitochondria (RLM) membranes; experiment: RLM lipid peroxidation, TBARS assay (FeSO4/H2O2/ascorbate); conditions: 5 μM; for prevention of TBARS formation / mitochondria lipid peroxidation: FeSO4/H2O2/ascorbate
[7] = system: rat liver mitochondria (RLM); experiment: Mitochondrial respiration of isolated RLM (Clark-type oxygen electrode): RCR, ADP/O; type: biochemical
Method: (§1) In an embodiment, and as an example, the toxicity effects of some AntiOxBENs and MitoQ on the mitochondrial bioenergetics, namely on RLM Δψ and respiration parameters, were measured. The Δψ represents the main component of the electrochemical gradient generated by mitochondrial respiration and accounts for more than 90% of the total available energy. For mitochondrial respiration assays, glutamate/malate (for complex I) and succinate (for complex II) were used as substrates. In addition, the mitochondrial oxidative phosphorylation coupling index, known as respiratory control ratio (RCR, state 3/state 4 respiration) and ADP/O index (the coupling between ATP synthesis and oxygen consumption) were also calculated. AntiOxBENs and MitoQ were tested at antioxidant-relevant concentrations, with 10 μM being the highest concentration.
In an embodiment, the evaluation of AntiOxBENs effect on mitochondrial respiration was performed as follows: the respiration of isolated RLM was evaluated polarographically with a Clark-type oxygen electrode, connected to a suitable recorder in a 1 mL thermostated water-jacketed chamber with magnetic stirring, at 37° C. […] Increasing concentrations of AntiOxBENs (2.5-10 μM) were added to the reaction medium containing respiratory substrates glutamate/malate (10 mM and 5 mM respectively) or succinate (5 mM) and RLM (1 mg) and allowed to incubate for a 5 min period prior to the assay. State 2 was considered as the respiration during the 5 min incubation time with AntiOxBENs. […] State 4 was determined after ADP phosphorylation finished. Subsequent addition of oligomycin (2 μg/ml) inhibited ATPsynthase and originated the oligomycin-inhibition respiration state. Finally, 1 μM FCCP was added to induce uncoupled respiration. […] Data are means are means±SEM of seven independent experiments.

[8] = system: rat liver mitochondria (RLM); experiment: Mitochondrial transmembrane electric potential (safranine fluorescence); type: biochemical
Method: as §1
In an embodiment, the evaluation of AntiOxBENs effect on mitochondrial transmembrane electric potential (Δψ) was performed as follows: the mitochondrial transmembrane electric potential (Δψ) was estimated through the evaluation of fluorescence changes of safranine (5 μM) and was recorded on a spectrofluorometer operating at excitation and emission wavelengths of 495 and 586 nm, with a slit width of 5 nm. Increasing concentrations of AntiOxBENs (2.5-10 μM) were added to the reaction medium (200 mM sucrose, 1 mM KH2PO^4, 10 mM Tris (pH 7.4) and 10 μM EGTA) containing respiratory substrates glutamate/malate (5 mM and 2.5 mM respectively) or succinate (5 mM) and RLM (0.5 mg in 2 mL final volume) and allowed to incubate for a 5 min period prior to initiate the assay, at 25° C. In this assay, safranine (5 μM) and ADP (25 nmol) were used to initiate the assay and to induce depolarization, respectively. Then, 1 μM FCCP was added at the end of all experiments to depolarize mitochondria. Δψ was calculated using a calibration curve obtained when RLM were incubated in a K^+-free reaction medium containing 200 mM sucrose, 1 mM NaH2PO4, 10 mM Tris (pH 7.4) and 10 μM EGTA, supplemented with 0.4 μg valinomicin. […] “Repolarization” corresponded to the recovery of membrane potential after the complete phosphorylation of ADP added. Lag phase reflected the time required to phosphorylate the added ADP. Isolated RLM developed a Δψ≈226 mV and Δψ≈202 mV (negative inside) when glutamate/malate or succinate were used, respectively. Data are means±SEM of five independent experiments.

Compound: O=C(O)CN(CCN(CC(=O)O)CC(=O)O)CC(=O)O [EDTA, ethylenediaminetetracetic acid]
ability to chelate ferrous iron [1]: chelate all the iron available in solution

IC50 [2]: 9.9 µM | IC50 [3]: 7.8 µM | IC50 [4]: 2.5 µM | Ep (redox potential) [5]: 0.163 V
Compound: O=C(O)c1cc(O)c(O)c(O)c1 [Gallic acid]
ability to chelate ferrous iron [1]: able to chelate iron efficiently | prevention of TBARS formation / mitochondria lipid peroxidation [6]: most effective

Compound: COC1=C(OC)C(=O)C(CCCCCCCCCC[P+](c2ccccc2)(c2ccccc2)c2ccccc2)=C(C)C1=O.CS(=O)(=O)[O-] [MitoQ, [10-(4,5-dimethoxy-2-methyl-3,6-dioxo-1,4-cyclohexadien-1-yl)decyl]triphenylphosphonium methanesulfonate, reference compound]
concentration causing toxicity on the mitochondrial bioenergetic apparatus of RLM ([7]; RLM): 2500 nM | ADP/O ([7]; RLM, Glutamate/Malate, 2.5 μM): 2.2 ± 0.1 | RCR ([7]; RLM, Glutamate/Malate, 2.5 μM): 4.2 ± 0.6 | ADP/O ([7]; RLM, Glutamate/Malate, 5 μM): 1.9 ± 0.1 | RCR ([7]; RLM, Glutamate/Malate, 5 μM): 2.7 ± 0.3 | ADP/O ([7]; RLM, Glutamate/Malate, 10 μM): 2.0 ± 0.2 | RCR ([7]; RLM, Glutamate/Malate, 10 μM): 1.3 ± 0.1 | ADP/O ([7]; RLM, Succinate, 2.5 μM): 1.3 ± 0.1 | RCR ([7]; RLM, Succinate, 2.5 μM): 2.6 ± 0.2 | ADP/O ([7]; RLM, Succinate, 5 μM): 1.3 ± 0.1 | RCR ([7]; RLM, Succinate, 5 μM): 2.4 ± 0.2 | effect on RCR and ADP/O parameters ([7]; RLM, all tested concentrations (2.5-10 μM)): significant decrease of RCR and ADP/O parameters | uncoupling of RLM ([7]; succinate, highest concentration tested (10 μM)): completely uncoupled | Δψ after ADP addition ([8]; 10 μM): Δψ collapse after ADP addition | ADP-induced depolarization (ΔΨ in - mV) ([8]; Glutamate/Malate, 2.5 μM): 173.0 ± 9.4 - mV | Lag Phase ([8]; Glutamate/Malate, 2.5 μM): 86.5 ± 5.6 s | Maximum potential (ΔΨ in - mV) ([8]; Glutamate/Malate, 2.5 μM): 195.7 ± 10.8 - mV | Repolarization Potential (ΔΨ in - mV) ([8]; Glutamate/Malate, 2.5 μM): 191.1 ± 11.7 - mV | ADP-induced depolarization (ΔΨ in - mV) ([8]; Glutamate/Malate, 5 μM): 173.5 ± 8.9 - mV | Lag Phase ([8]; Glutamate/Malate, 5 μM): 84.5 ± 7.1 s | Maximum potential (ΔΨ in - mV) ([8]; Glutamate/Malate, 5 μM): 188.3 ± 10.6 - mV | Repolarization Potential (ΔΨ in - mV) ([8]; Glutamate/Malate, 5 μM): 185.0 ± 9.4 - mV | Maximum potential (ΔΨ in - mV) ([8]; Glutamate/Malate, 10 μM): 113.8 ± 10.2 - mV | ADP-induced depolarization (ΔΨ in - mV) ([8]; Succinate, 2.5 μM): 162.1 ± 6.0 - mV | Lag Phase ([8]; Succinate, 2.5 μM): 104.8 ± 9.9 s | Maximum potential (ΔΨ in - mV) ([8]; Succinate, 2.5 μM): 181.6 ± 8.3 - mV | Repolarization Potential (ΔΨ in - mV) ([8]; Succinate, 2.5 μM): 182.7 ± 9.2 - mV | ADP-induced depolarization (ΔΨ in - mV) ([8]; Succinate, 5 μM): 157.1 ± 6.4 - mV | Lag Phase ([8]; Succinate, 5 μM): 92.6 ± 19.4 s | Maximum potential (ΔΨ in - mV) ([8]; Succinate, 5 μM): 170.2 ± 8.1 - mV | Repolarization Potential (ΔΨ in - mV) ([8]; Succinate, 5 μM): 170.7 ± 8.7 - mV | Maximum potential (ΔΨ in - mV) ([8]; Succinate, 10 μM): 108.9 ± 3.8 - mV | inhibition of lipid peroxidation in RLM ([6]; FIGS. 4 and 5 (TBARS and oxygen consumption)): effectively inhibited lipid peroxidation

Compound: O=C(O)c1ccc(O)c(O)c1 [Protocatechuic acid]
IC50 [2]: 27.6 µM | IC50 [3]: 30.1 µM | IC50 [4]: 5.8 µM | Ep (redox potential) [5]: 0.257 V | ability to chelate ferrous iron [1]: able to chelate iron efficiently | prevention of TBARS formation / mitochondria lipid peroxidation [6]: not effective

IC50 [2]: 26.8 µM | IC50 [3]: 31.1 µM | IC50 [4]: 4.5 µM | Ep (redox potential) [5]: 0.099 V
Compound: Cc1c(C)c2c(c(C)c1O)CCC(C)(C(=O)O)O2 (centres unmarked) [Trolox]

IC50 [2]: 26.3 µM | IC50 [3]: 30.9 µM | IC50 [4]: 5.8 µM
Compound: Vitamin E
